Source: ChEMBL document CHEMBL1201862, “PubChem BioAssay data set” (2004)
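Cells were grown in 96-well plates and exposed to each compound for 48 hours at five concentrations; endpoints were interpolated linearly between bracketing concentrations, or set to the highest concentration if not reached. At the GI50, growth is halved.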 Calls of active or inactive are those of the source. Cut-off read from the data, not from the text of the source: active = GI50 up to about 1.1 µM and inactive = higher.

Tests used:
Assay in all cases: growth of human tumour cells (NCI), 48 h
786-0 = test system: 786-0
A549 = test system: A549
ACHN = test system: ACHN
BT-549 = test system: BT-549
CAKI-1 = test system: CAKI-1
CCRF-CEM = test system: CCRF-CEM
COLO 205 = test system: COLO 205
DU-145 = test system: DU-145
EKVX = test system: EKVX
HCC 2998 = test system: HCC 2998
HCT-116 = test system: HCT-116
HCT-15 = test system: HCT-15
HL-60 = test system: HL-60
HOP-62 = test system: HOP-62
HOP-92 = test system: HOP-92
HT-29 = test system: HT-29
Hs-578T = test system: Hs-578T
IGROV-1 = test system: IGROV-1
K562 = test system: K562
KM12 = test system: KM12
LOX IMVI = test system: LOX IMVI
M14 = test system: M14
MCF7 = test system: MCF7
MDA-MB-231 = test system: MDA-MB-231
MDA-MB-435 = test system: MDA-MB-435
MDA-N = test system: MDA-N
NCI-H226 = test system: NCI-H226
NCI-H23 = test system: NCI-H23
NCI-H460 = test system: NCI-H460
NCI-H522 = test system: NCI-H522
NCI/ADR-RES = test system: NCI/ADR-RES
OVCAR-3 = test system: OVCAR-3
OVCAR-4 = test system: OVCAR-4
OVCAR-5 = test system: OVCAR-5
OVCAR-8 = test system: OVCAR-8
PC-3 = test system: PC-3
RPMI-8226 = test system: RPMI-8226
RXF 393 = test system: RXF 393
SF-268 = test system: SF-268
SF-295 = test system: SF-295
SF-539 = test system: SF-539
SK-MEL-28 = test system: SK-MEL-28
SK-MEL-2 = test system: SK-MEL-2
SK-MEL-5 = test system: SK-MEL-5
SK-OV-3 = test system: SK-OV-3
SN12C = test system: SN12C
SNB-19 = test system: SNB-19
SNB-75 = test system: SNB-75
SR = test system: SR
SW-620 = test system: SW-620
T47D = test system: T47D
TK-10 = test system: TK-10
U-251 = test system: U-251
UACC-257 = test system: UACC-257
UACC-62 = test system: UACC-62
UO-31 = test system: UO-31
MOLT-4 = test system: MOLT-4
Malme-3M = test system: Malme-3M

O=C1OC(c2ccc(Cl)cc2)=N/C1=C\c1ccccc1
GI50 (786-0): > 100 µM (inactive) | GI50 (A549): > 100 µM (inactive) | GI50 (ACHN): > 100 µM (inactive) | GI50 (BT-549): > 100 µM (inactive) | GI50 (CAKI-1): > 100 µM (inactive) | GI50 (CCRF-CEM): 39.5 µM (inactive) | GI50 (COLO 205): > 100 µM (inactive) | GI50 (DU-145): > 100 µM (inactive) | GI50 (EKVX): > 100 µM (inactive) | GI50 (HCC 2998): > 100 µM (inactive) | GI50 (HCT-116): > 100 µM (inactive) | GI50 (HCT-15): > 100 µM | GI50 (HL-60): 62.7 µM (inactive) | GI50 (HOP-62): > 100 µM (inactive) | GI50 (HOP-92): > 100 µM (inactive) | GI50 (HT-29): > 100 µM (inactive) | GI50 (Hs-578T): > 100 µM (inactive) | GI50 (IGROV-1): > 100 µM (inactive) | GI50 (K562): > 100 µM (inactive) | GI50 (KM12): > 100 µM (inactive) | GI50 (LOX IMVI): > 100 µM (inactive) | GI50 (M14): > 100 µM (inactive) | GI50 (MCF7): > 100 µM (inactive) | GI50 (MDA-MB-231): > 100 µM (inactive) | GI50 (MDA-MB-435): > 100 µM (inactive) | GI50 (MDA-N): > 100 µM (inactive) | GI50 (NCI-H226): > 100 µM (inactive) | GI50 (NCI-H23): > 100 µM (inactive) | GI50 (NCI-H460): > 100 µM (inactive) | GI50 (NCI-H522): 49.2 µM (inactive) | GI50 (NCI/ADR-RES): 78 µM (inactive) | GI50 (OVCAR-3): 42.3 µM (inactive) | GI50 (OVCAR-4): > 100 µM (inactive) | GI50 (OVCAR-5): > 100 µM (inactive) | GI50 (OVCAR-8): > 100 µM (inactive) | GI50 (PC-3): > 100 µM (inactive) | GI50 (RPMI-8226): 46.6 µM (inactive) | GI50 (RXF 393): > 100 µM (inactive) | GI50 (SF-268): > 100 µM (inactive) | GI50 (SF-295): > 100 µM (inactive) | GI50 (SF-539): > 100 µM (inactive) | GI50 (SK-MEL-28): > 100 µM (inactive) | GI50 (SK-MEL-2): > 100 µM (inactive) | GI50 (SK-MEL-5): > 100 µM (inactive) | GI50 (SK-OV-3): > 100 µM (inactive) | GI50 (SN12C): > 100 µM (inactive) | GI50 (SNB-19): > 100 µM (inactive) | GI50 (SNB-75): > 100 µM (inactive) | GI50 (SR): > 100 µM (inactive) | GI50 (SW-620): > 100 µM (inactive) | GI50 (T47D): > 100 µM (inactive) | GI50 (TK-10): > 100 µM (inactive) | GI50 (U-251): > 100 µM (inactive) | GI50 (UACC-257): > 100 µM (inactive) | GI50 (UACC-62): > 100 µM (inactive) | GI50 (UO-31): > 100 µM (inactive)

O=C1NC(=S)NC(=O)C1=C/C=C/c1ccc([N+](=O)[O-])cc1
GI50 (786-0): 14.2 µM (inactive) | GI50 (A549): 21.1 µM (inactive) | GI50 (ACHN): 18 µM (inactive) | GI50 (BT-549): 10.6 µM (inactive) | GI50 (CAKI-1): 15.2 µM (inactive) | GI50 (CCRF-CEM): 2.32 µM (inactive) | GI50 (COLO 205): 13.2 µM (inactive) | GI50 (DU-145): 16.1 µM (inactive) | GI50 (EKVX): 17.9 µM (inactive) | GI50 (HCC 2998): 18.4 µM (inactive) | GI50 (HCT-116): 17.8 µM (inactive) | GI50 (HCT-15): 14.3 µM | GI50 (HL-60): 3.71 µM (inactive) | GI50 (HOP-62): 18.7 µM (inactive) | GI50 (HOP-92): 14.4 µM (inactive) | GI50 (HT-29): 23.8 µM (inactive) | GI50 (Hs-578T): 10.7 µM (inactive) | GI50 (IGROV-1): 12.2 µM (inactive) | GI50 (K562): 3.72 µM (inactive) | GI50 (KM12): 38 µM (inactive) | GI50 (LOX IMVI): 6.76 µM (inactive) | GI50 (M14): 15 µM (inactive) | GI50 (MCF7): 14 µM (inactive) | GI50 (MDA-MB-231): 18.2 µM (inactive) | GI50 (MDA-MB-435): 10.4 µM (inactive) | GI50 (MDA-N): 8.71 µM (inactive) | GI50 (MOLT-4): 3.04 µM (inactive) | GI50 (Malme-3M): 9.66 µM (inactive) | GI50 (NCI-H226): 19.1 µM (inactive) | GI50 (NCI-H23): 13.9 µM (inactive) | GI50 (NCI-H460): 27 µM (inactive) | GI50 (NCI/ADR-RES): 13.1 µM (inactive) | GI50 (OVCAR-3): 14.3 µM (inactive) | GI50 (OVCAR-4): 19.8 µM (inactive) | GI50 (OVCAR-5): 18.3 µM (inactive) | GI50 (OVCAR-8): 22.1 µM (inactive) | GI50 (PC-3): 16.9 µM (inactive) | GI50 (RPMI-8226): 7.24 µM (inactive) | GI50 (RXF 393): 13.1 µM (inactive) | GI50 (SF-268): 15.2 µM (inactive) | GI50 (SF-295): 17.3 µM (inactive) | GI50 (SF-539): 13.8 µM (inactive) | GI50 (SK-MEL-28): 3.03 µM (inactive) | GI50 (SK-MEL-2): 16.4 µM (inactive) | GI50 (SK-MEL-5): 19.3 µM (inactive) | GI50 (SK-OV-3): 20.2 µM (inactive) | GI50 (SN12C): 15.8 µM (inactive) | GI50 (SNB-19): 17.1 µM (inactive) | GI50 (SNB-75): 19.2 µM (inactive) | GI50 (SW-620): 4.9 µM (inactive) | GI50 (T47D): 24.9 µM (inactive) | GI50 (TK-10): 5.45 µM (inactive) | GI50 (U-251): 4 µM (inactive) | GI50 (UACC-257): 12.7 µM (inactive) | GI50 (UACC-62): 11 µM (inactive) | GI50 (UO-31): 18.3 µM (inactive)
